One data set has as its target Nav 1.5 (Homo sapiens (Human), UniProt Q14524). In words: in-vitro Nav 1.5 PX (IC50). To be noted: read-out: Nav 1.5 PX IC50.
The target of a further data set is Nav 1.7 (Homo sapiens (Human), UniProt Q15858). In words: in-vitro Nav 1.7 PX (IC50). The class given is cell-based.
Where [1] appears, read: in-vitro Nav 1.5 PX data (PatchXpress).

SMILES strings stand for the structures. Like-named read-outs stand apart in the source and are kept apart here. Bounds are passed on as bounds.

Chain of Nav 1.7 (Q15858 whole entry): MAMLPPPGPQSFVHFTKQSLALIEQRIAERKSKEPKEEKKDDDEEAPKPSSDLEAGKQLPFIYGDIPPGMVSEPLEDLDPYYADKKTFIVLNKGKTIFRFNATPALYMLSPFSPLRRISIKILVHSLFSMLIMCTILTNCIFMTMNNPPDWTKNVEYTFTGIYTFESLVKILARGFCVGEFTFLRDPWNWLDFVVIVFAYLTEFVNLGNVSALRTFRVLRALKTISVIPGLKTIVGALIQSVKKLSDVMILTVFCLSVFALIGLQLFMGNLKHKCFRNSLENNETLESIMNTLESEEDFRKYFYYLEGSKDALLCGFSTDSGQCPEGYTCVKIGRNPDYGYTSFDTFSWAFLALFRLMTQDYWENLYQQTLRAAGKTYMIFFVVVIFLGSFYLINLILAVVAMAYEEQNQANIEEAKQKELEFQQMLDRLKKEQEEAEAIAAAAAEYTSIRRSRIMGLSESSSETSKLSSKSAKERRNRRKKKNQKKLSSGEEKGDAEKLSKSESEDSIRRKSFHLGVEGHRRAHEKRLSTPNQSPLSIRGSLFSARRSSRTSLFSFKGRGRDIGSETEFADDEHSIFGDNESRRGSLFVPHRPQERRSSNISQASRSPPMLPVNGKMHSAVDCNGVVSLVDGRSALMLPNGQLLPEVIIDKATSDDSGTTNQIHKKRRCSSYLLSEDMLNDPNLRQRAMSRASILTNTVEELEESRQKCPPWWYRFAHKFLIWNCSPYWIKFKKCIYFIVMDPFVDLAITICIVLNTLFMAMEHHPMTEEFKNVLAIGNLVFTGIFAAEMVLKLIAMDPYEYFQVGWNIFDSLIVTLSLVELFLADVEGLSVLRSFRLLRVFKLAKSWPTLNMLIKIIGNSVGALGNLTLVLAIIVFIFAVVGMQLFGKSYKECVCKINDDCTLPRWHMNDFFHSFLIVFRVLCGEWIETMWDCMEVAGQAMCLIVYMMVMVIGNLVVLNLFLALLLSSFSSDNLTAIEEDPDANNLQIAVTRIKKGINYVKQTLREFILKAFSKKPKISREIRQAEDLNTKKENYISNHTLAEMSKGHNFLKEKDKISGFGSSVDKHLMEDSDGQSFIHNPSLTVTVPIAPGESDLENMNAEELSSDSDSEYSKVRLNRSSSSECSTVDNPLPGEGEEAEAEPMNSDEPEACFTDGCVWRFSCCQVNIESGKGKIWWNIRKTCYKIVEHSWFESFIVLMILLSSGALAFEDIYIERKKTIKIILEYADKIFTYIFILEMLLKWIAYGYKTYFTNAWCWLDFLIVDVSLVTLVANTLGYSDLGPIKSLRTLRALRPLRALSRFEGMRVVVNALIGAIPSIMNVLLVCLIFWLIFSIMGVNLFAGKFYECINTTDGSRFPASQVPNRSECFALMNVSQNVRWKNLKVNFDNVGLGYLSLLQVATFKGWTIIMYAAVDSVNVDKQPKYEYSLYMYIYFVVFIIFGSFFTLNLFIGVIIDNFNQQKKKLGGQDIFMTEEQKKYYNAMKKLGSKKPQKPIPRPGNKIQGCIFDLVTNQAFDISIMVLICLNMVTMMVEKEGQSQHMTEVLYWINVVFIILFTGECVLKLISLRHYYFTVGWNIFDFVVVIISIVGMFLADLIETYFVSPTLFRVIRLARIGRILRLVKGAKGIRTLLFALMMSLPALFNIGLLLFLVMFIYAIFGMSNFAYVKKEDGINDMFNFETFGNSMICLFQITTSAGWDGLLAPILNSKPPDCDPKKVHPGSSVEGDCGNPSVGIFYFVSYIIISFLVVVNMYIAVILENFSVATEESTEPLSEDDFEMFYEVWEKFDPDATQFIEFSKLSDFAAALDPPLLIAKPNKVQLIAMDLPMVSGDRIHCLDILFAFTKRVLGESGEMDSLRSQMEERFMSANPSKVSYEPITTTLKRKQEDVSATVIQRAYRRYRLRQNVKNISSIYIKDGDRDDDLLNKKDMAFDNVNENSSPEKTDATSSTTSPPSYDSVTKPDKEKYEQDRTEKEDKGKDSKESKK
Chain of Nav 1.5 (Q14524 whole entry): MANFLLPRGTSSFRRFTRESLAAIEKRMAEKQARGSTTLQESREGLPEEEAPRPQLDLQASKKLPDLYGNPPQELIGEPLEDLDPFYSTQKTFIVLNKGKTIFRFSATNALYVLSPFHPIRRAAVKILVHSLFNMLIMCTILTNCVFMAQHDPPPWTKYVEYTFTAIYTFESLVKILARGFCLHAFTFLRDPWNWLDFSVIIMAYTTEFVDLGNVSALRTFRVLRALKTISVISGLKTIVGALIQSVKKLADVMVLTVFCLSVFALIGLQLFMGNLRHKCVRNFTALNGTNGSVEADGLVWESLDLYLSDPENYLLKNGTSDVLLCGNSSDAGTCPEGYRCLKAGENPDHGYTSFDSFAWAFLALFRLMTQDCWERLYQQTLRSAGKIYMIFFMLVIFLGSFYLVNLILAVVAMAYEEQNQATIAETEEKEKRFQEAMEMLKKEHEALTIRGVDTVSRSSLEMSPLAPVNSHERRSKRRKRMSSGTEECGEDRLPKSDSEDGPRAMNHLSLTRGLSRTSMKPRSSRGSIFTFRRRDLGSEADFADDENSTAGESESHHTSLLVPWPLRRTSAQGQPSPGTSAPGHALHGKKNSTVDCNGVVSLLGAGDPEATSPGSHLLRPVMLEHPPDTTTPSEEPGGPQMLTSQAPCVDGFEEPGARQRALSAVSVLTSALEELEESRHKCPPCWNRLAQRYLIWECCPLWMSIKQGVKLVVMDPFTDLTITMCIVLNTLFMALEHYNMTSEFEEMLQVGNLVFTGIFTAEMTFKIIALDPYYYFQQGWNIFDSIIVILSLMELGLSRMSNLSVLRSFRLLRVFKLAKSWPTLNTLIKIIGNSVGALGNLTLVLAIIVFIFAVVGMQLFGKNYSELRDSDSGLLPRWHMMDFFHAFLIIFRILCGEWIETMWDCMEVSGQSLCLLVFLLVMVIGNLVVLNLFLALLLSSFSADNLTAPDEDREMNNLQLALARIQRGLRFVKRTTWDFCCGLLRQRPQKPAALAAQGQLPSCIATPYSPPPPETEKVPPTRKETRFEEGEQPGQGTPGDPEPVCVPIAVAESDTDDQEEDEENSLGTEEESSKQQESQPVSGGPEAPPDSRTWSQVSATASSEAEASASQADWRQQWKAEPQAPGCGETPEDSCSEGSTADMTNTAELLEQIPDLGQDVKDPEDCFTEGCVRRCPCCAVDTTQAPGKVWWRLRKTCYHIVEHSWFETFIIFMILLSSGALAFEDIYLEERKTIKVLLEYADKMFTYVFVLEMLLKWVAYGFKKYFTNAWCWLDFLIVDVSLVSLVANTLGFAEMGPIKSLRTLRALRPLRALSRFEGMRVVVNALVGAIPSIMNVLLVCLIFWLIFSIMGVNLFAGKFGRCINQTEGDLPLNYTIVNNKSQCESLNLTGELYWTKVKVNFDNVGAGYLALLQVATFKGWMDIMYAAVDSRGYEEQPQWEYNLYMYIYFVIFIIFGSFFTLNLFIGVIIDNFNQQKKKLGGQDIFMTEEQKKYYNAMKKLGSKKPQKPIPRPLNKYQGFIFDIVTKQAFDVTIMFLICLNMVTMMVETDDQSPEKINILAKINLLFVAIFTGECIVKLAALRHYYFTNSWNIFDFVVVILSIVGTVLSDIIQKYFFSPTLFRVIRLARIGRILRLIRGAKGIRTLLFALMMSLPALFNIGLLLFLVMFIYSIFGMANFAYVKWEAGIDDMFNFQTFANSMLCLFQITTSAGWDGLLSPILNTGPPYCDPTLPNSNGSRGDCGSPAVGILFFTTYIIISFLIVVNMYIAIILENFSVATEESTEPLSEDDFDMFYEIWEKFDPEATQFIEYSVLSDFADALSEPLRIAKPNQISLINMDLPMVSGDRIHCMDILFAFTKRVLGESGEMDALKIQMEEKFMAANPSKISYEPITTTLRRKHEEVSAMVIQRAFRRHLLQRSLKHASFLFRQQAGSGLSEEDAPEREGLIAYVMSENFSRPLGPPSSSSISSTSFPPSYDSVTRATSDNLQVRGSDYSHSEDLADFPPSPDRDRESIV

For `COc1cc(-c2cc(F)cc(Cl)c2)c(F)cc1-n1c(=O)ccc2cc(S(=O)(=O)Nc3ccon3)ccc21` (atropisomer, axis not shown; (P)) [Example 477, (P)-1-(3′-chloro-2,5′-difluoro-5-methoxy-4-biphenylyl)-N-3-isoxazolyl-2-oxo-1,2-dihydro-6-quinolinesulfonamide], the half-inhibitory concentration (IC50) (as a rule, the concentration at which inhibition is half-maximal) was more than 30000 nM at Nav 1.5 and 7 nM on Nav 1.7.
For `COc1cc(-c2cccc(F)c2)c(Cl)cc1-n1c(=O)ccc2cc(S(=O)(=O)Nc3cccnn3)ccc21` (atropisomer, axis not shown; (P)) [Example 467, (P)-1-(2-chloro-3′-fluoro-5-methoxy-[1,1′-biphenyl]-4-yl)-2-oxo-N-(pyridazin-3-yl)-1,2-dihydroquinoline-6-sulfonamide] the same measures were more than 30000 nM and 13 nM.
In the case of `COc1cc(-c2cccc(F)c2)c(Cl)cc1-n1c(=O)ccc2cc(S(=O)(=O)Nc3ccncn3)ccc21` (atropisomer, axis not shown; (P)) [Example 465, (P)-1-(2-chloro-3′-fluoro-5-methoxy-[1,1′-biphenyl]-4-yl)-2-oxo-N-(pyrimidin-4-yl)-1,2-dihydroquinoline-6-sulfonamide], the 50% inhibitory concentration (IC50) on Nav 1.5 is more than 30000 nM.
Consider `COc1cc(-c2ccc(F)c(C)c2)c(F)cc1-n1c(=O)ccc2cc(S(=O)(=O)Nc3ccon3)c(F)cc21` [Example 981, 1-(2,4′-difluoro-5-methoxy-3′-methyl-4-biphenylyl)-7-fluoro-N-3-isoxazolyl-2-oxo-1,2-dihydro-6-quinolinesulfonamide], for which the half-inhibitory concentration (IC50) on Nav 1.5 (in-vitro Nav 1.5 PX data) was 496 nM; at Nav 1.7 (in-vitro Nav 1.7 PX data), 14 nM.
Consider `COc1cc(-c2cc(F)cc(Cl)c2)c(Cl)cc1-n1c(=O)ccc2cc(S(=O)(=O)Nc3ccon3)ccc21` (atropisomer, axis not shown; (P)) [Example 461, (P)-1-(2,3′-dichloro-5′-fluoro-5-methoxy-[1,1′-biphenyl]-4-yl)-N-(isoxazol-3-yl)-2-oxo-1,2-dihydroquinoline-6-sulfonamide], for which the IC50 on Nav 1.5 was more than 30000 nM; at Nav 1.7, 6 nM.
For `COc1cc(Cl)cc(-c2cc(OC)c(-n3c(=O)ccc4cc(S(=O)(=O)Nc5ncccn5)ccc43)cc2F)c1` [Example 924, 1-(3′-chloro-2-fluoro-5,5′-dimethoxy-4-biphenylyl)-2-oxo-N-2-pyrimidinyl-1,2-dihydro-6-quinolinesulfonamide], the half-maximal inhibitory concentration (IC50) at Nav 1.5 (in-vitro Nav 1.5 PX data) was more than 10000 nM; against Nav 1.7 (in-vitro Nav 1.7 PX data), 14 nM.
Regarding `COc1cc(-c2cccc(F)c2)c(Cl)cc1-n1c(=O)ccc2cc(S(=O)(=O)Nc3nncs3)ccc21` (atropisomer, axis not shown; (P)) [Example 353, (P)-1-(2-chloro-3′-fluoro-5-methoxy-[1,1′-biphenyl]-4-yl)-2-oxo-N-(1,3,4-THIADIAZOL-2-yl)-1,2-dihydroquinoline-6-sulfonamide], the IC50 on Nav 1.5 is more than 30000 nM; against Nav 1.7, 12 nM.
As for `COc1cc(-c2cc(OC)c(-n3c(=O)ccc4cc(S(=O)(=O)Nc5cccnn5)ccc43)cc2F)ccc1Cl` (atropisomer, axis not shown; (P)) [Example 628, (P)-1-(4′-chloro-2-fluoro-3′,5-dimethoxy-4-biphenylyl)-2-oxo-N-3-pyridazinyl-1,2-dihydro-6-quinolinesulfonamide], the half-inhibitory concentration (IC50) on Nav 1.5 (setting [1]) is more than 10000 nM.
For the compound `COc1cc(-c2cc(F)cnc2OC)ccc1-n1c(=O)ccc2cc(S(=O)(=O)Nc3ccon3)ccc21` (atropisomer, axis not shown; (P)) [Example 581, (P)-1-(4-(5-fluoro-2-methoxy-3-pyridinyl)-2-methoxyphenyl)-N-3-isoxazolyl-2-oxo-1,2-dihydro-6-quinolinesulfonamide], the results for the IC50 at Nav 1.5 and on Nav 1.7 were more than 10000 nM and 102 nM, respectively.
For `COc1cc(-c2cccc(C(F)(F)F)c2)c(Cl)cc1-n1c(=O)ccc2cc(S(=O)(=O)Nc3ccon3)ccc21` (atropisomer, axis not shown; (P)) [Example 533, (P)-1-(2-chloro-5-methoxy-3′-(trifluoromethyl)-[1,1′-biphenyl]-4-yl)-N-(isoxazol-3-yl)-2-oxo-1,2-dihydroquinoline-6-sulfonamide], in that order: more than 30000 nM and 4 nM.
As for `COc1cc(-c2cc(OC)c(-n3c(=O)ccc4cc(S(=O)(=O)Nc5ncccn5)ccc43)cc2F)ccc1Cl` (atropisomer, axis not shown; (P)) [Example 685, (P)-1-(4′-chloro-2-fluoro-3′,5-dimethoxy-4-biphenylyl)-2-oxo-N-2-pyrimidinyl-1,2-dihydro-6-quinolinesulfonamide], the IC50 on Nav 1.5 (setting [1]) is more than 10000 nM.
As for `COc1cc(-c2cc(OC)c(-n3c(=O)ccc4cc(S(=O)(=O)Nc5ccon5)ccc43)cc2F)ccc1C` [Example 698, 1-(2-fluoro-3′,5-dimethoxy-4′-methyl-4-biphenylyl)-N-3-isoxazolyl-2-oxo-1,2-dihydro-6-quinolinesulfonamide], the IC50 at Nav 1.5 (in-vitro Nav 1.5 PX data) was more than 10000 nM; against Nav 1.7 (in-vitro Nav 1.7 PX data) it was 14 nM.
For `COc1cc(-c2ccc(Cl)c(C)c2)c(F)cc1-n1c(=O)ccc2cc(S(=O)(=O)Nc3ncns3)ccc21` [Example 1075, 1-(4′-chloro-2-fluoro-5-methoxy-3′-methyl-4-biphenylyl)-2-oxo-N-1,2,4-thiadiazol-5-yl-1,2-dihydro-6-quinolinesulfonamide] the same measures were more than 10000 nM and 4 nM.
As to `COc1cc(-c2cc(Cl)ccc2C#N)c(F)cc1-n1c(=O)ccc2cc(S(=O)(=O)Nc3ccon3)ccc21` [Example 758, 1-(5′-chloro-2′-cyano-2-fluoro-5-methoxy-4-biphenylyl)-N-3-isoxazolyl-2-oxo-1,2-dihydro-6-quinolinesulfonamide], on Nav 1.7 (in-vitro Nav 1.7 PX data), the midpoint of inhibition, the IC50, lay at 20 nM.
The same measure, in the same setting: then `COc1cc(-c2cccc(OC(C)C)c2)ccc1-n1c(=O)ccc2cc(S(=O)(=O)Nc3ccon3)ccc21` [Example 780, N-3-isoxazolyl-1-(3-methoxy-3′-(1-methylethoxy)-4-biphenylyl)-2-oxo-1,2-dihydro-6-quinolinesulfonamide], with 26 nM.
Regarding `COc1cc(-c2cccc(F)c2Cl)ccc1-n1c(=O)ccc2cc(S(=O)(=O)Nc3ccon3)ccc21` [Example 1058, 1-(2′-chloro-3′-fluoro-3-methoxy-4-biphenylyl)-N-3-isoxazolyl-2-oxo-1,2-dihydro-6-quinolinesulfonamide], the half-inhibitory concentration (IC50) on Nav 1.7 (in-vitro Nav 1.7 PX data (PatchXpress)) worked out at 38 nM.
On Nav 1.7 (in-vitro PatchXpress (PX)), `COc1cc(-c2cccc(C#N)c2)c(F)cc1-n1c(=O)ccc2cc(S(=O)(=O)Nc3ccon3)ccc21` (atropisomer, axis not shown; (M)) [Example 499, (M)-1-(3′-cyano-2-fluoro-5-methoxy-4-biphenylyl)-N-3-isoxazolyl-2-oxo-1,2-dihydro-6-quinolinesulfonamide] returned a concentration for half-maximal inhibition (IC50) of 24800 nM.
Consider `COc1ccc(-c2cccc(C(F)(F)F)c2)cc1-n1c(=O)ccc2cc(S(=O)(=O)Nc3ccon3)ccc21` (atropisomer, axis not shown; (P)) [Example 381, (P)—N-3-isoxazolyl-1-(4-methoxy-3′-(trifluoromethyl)-3-biphenylyl)-2-oxo-1,2-dihydro-6-quinolinesulfonamide], for which the IC50 at Nav 1.7 amounted to 15 nM.

The record behind these values is patent US9212182B2, “Bicyclic sulfonamide compounds as sodium channel inhibitors” (AMGEN INC., priority 2013, dated 2015).
